# Marks after values point to notes of the source that are not given here.
# Columns and labels:
# [1] = Plasma and urine pharmacokinetics after single oral dose under fasting conditions; type: in vivo, human; conditions: for T 1/2 / C max / T max / CL/F (oral clearance) / Vz/F (volume of distribution) / AUC(0-inf) / CL/F / Vz/F: plasma
# Protocol: Healthy Japanese and non-Japanese subjects between 18 and 55 years of age were recruited to participate in the study. Criteria for exclusion included prior treatment with any investigational compound within 30 days of the first TAK-063 dose, a positive test for drugs of abuse or nicotine, and an increased risk for suicide. Subjects were randomized into 1 of 6 dose cohorts (3, 10, 30, 100, 300, and 1000 mg), with each cohort containing 11 TAK-063 subjects (five Japanese, six non-Japanese) and three placebo subjects (one Japanese, two non-Japanese) receiving a single dose under fasting conditions. Following a washout period of 7 days, subjects in cohort 3 (100 mg) received the same dose (100 mg) but under fed conditions. Serial plasma and urine samples were collected from all subjects prior to dosing and at specific time points or intervals up to 96 h postdose. Pharmacokinetic samples were processed immediately and frozen at −20 °C as duplicate sets. Plasma concentrations of TAK-063 and its metabolite M-I were subsequently measured by validated liquid chromatography-tandem mass spectrometry with a validated range of 0.5 to 1000 ng/mL for both analytes. The PK parameters analyzed for TAK-063 and its metabolite M-I in plasma and urine included area under the plasma concentration-time curve from time 0 to infinity (AUC (0-inf)), maximum observed plasma concentration (C max), time to reach C max (T max), terminal elimination half-life (T 1/2), oral clearance (CL/F), volume of distribution (Vz/F), and renal clearance (CLr). Metabolite-to-parent ratios were estimated from C max and AUC (0-inf) data. All statistical analyses were generated using SAS Version 9.2 (SAS, Cary, NC, USA). The PK parameters were derived using non-compartmental methods with WinNonlin Enterprise Version 6.3 (Pharsight Corp., Mountain View, CA, USA). Frequency or descriptive statistics were used for summary of data. Where indicated, percent coefficient of variation was included in the summary of continuous data. All statistical tests were 2-tailed at α = 0.05 level for significance unless otherwise stated. A power model was used to evaluate dose proportionality by race for fasted subjects; in the event of no observed race effect, dose proportionality was assessed for all subjects. To evaluate the food effect, a paired t test was performed on T max and natural log-transformed C max, and AUCs. An ANCOVA model with baseline scores and race as covariates was used to assess the effects of TAK-063 on CNSVS domain scores.
# [2] = Food effect on pharmacokinetics, 100 mg fed vs fasting; type: in vivo, human
# Protocol: Healthy Japanese and non-Japanese subjects between 18 and 55 years of age were recruited to participate in the study. Criteria for exclusion included prior treatment with any investigational compound within 30 days of the first TAK-063 dose, a positive test for drugs of abuse or nicotine, and an increased risk for suicide. Subjects were randomized into 1 of 6 dose cohorts (3, 10, 30, 100, 300, and 1000 mg), with each cohort containing 11 TAK-063 subjects (five Japanese, six non-Japanese) and three placebo subjects (one Japanese, two non-Japanese) receiving a single dose under fasting conditions. […] Plasma concentrations of TAK-063 and its metabolite M-I were subsequently measured by validated liquid chromatography-tandem mass spectrometry with a validated range of 0.5 to 1000 ng/mL for both analytes. The PK parameters analyzed for TAK-063 and its metabolite M-I in plasma and urine included area under the plasma concentration-time curve from time 0 to infinity (AUC (0-inf)), maximum observed plasma concentration (C max), time to reach C max (T max), terminal elimination half-life (T 1/2), oral clearance (CL/F), volume of distribution (Vz/F), and renal clearance (CLr). […] A power model was used to evaluate dose proportionality by race for fasted subjects; in the event of no observed race effect, dose proportionality was assessed for all subjects. […]
# [3] = fasting, all subjects, TAK-063 300 mg (n = 11; TAK-063 n = 8), arithmetic mean (% CV)
# [4] = fasting, all subjects, TAK-063 1000 mg (n = 11), arithmetic mean (% CV)
# [5] = non-Japanese subjects, TAK-063 3 mg (n = 6), arithmetic mean
# [6] = non-Japanese subjects, TAK-063 3 mg (n = 6; M-I n = 5), arithmetic mean
# [7] = non-Japanese subjects, TAK-063 10 mg (n = 6), arithmetic mean
# [8] = non-Japanese subjects, TAK-063 30 mg (n = 6), arithmetic mean
# [9] = non-Japanese subjects, TAK-063 100 mg (n = 5), arithmetic mean
# [10] = non-Japanese subjects, TAK-063 100 mg (n = 6; TAK-063 n = 5), arithmetic mean
# [11] = non-Japanese subjects, TAK-063 300 mg (n = 4), arithmetic mean
# [12] = non-Japanese subjects, TAK-063 300 mg (n = 6; TAK-063 n = 4), arithmetic mean
# [13] = non-Japanese subjects, TAK-063 1000 mg (n = 6), arithmetic mean
compound,measurement,setting,value
COc1cn(-c2ccc(-n3cccn3)cc2F)nc(-c2ccnn2-c2ccccc2)c1=O [TAK-063],T 1/2,"[1]; fasting, all subjects, TAK-063 300 mg (n = 8), arithmetic mean (% CV)",20.2 (26)^d h
same,C max,"[1]; fasting, all subjects, TAK-063 300 mg (n = 11), arithmetic mean (% CV)",100.3 (18) ng/mL
same,T max,"[1]; fasting, all subjects, TAK-063 300 mg (n = 11), median (minimum, maximum)","4.0 (1.9, 8.0) h"
same,CL/F (oral clearance),[1]; [3],185.9 (48)^d L/h
same,Vz/F (volume of distribution),[1]; [3],5570.7 (57)^d L
same,AUC(0-inf),[1]; [4],5788.1 (81) ng·h/mL
same,C max,[1]; [4],245.8 (34) ng/mL
same,CL/F (oral clearance),[1]; [4],232.0 (42) L/h
same,T 1/2,[1]; [4],14.6 (43) h
same,Vz/F (volume of distribution),[1]; [4],5277.2 (81) L
same,T max,"[1]; fasting, all subjects, TAK-063 1000 mg (n = 11), median (minimum, maximum)","4.0 (2.0, 12.0) h"
same,C max,[1]; [5],8.2 ng/mL
same,CL/F,[1]; [5],15.2 L/h
same,Vz/F,[1]; [5],521.6 L
same,T max,"[1]; non-Japanese subjects, TAK-063 3 mg (n = 6), median",5.0 h
same,AUC(0-inf),[1]; [6],240.4 ng·h/mL
same,T 1/2,[1]; [6],24.2 h
same,AUC(0-inf),[1]; [7],507.9 ng·h/mL
same,C max,[1]; [7],23.8 ng/mL
same,CL/F,[1]; [7],21.2 L/h
same,T 1/2,[1]; [7],21.3 h
same,Vz/F,[1]; [7],627.3 L
same,T max,"[1]; non-Japanese subjects, TAK-063 10 mg (n = 6), median",5.0 h
same,AUC(0-inf),[1]; [8],983.9 ng·h/mL
same,C max,[1]; [8],39.5 ng/mL
same,CL/F,[1]; [8],31.4 L/h
same,T 1/2,[1]; [8],22.6 h
same,Vz/F,[1]; [8],1009.2 L
same,T max,"[1]; non-Japanese subjects, TAK-063 30 mg (n = 6), median",5.0 h
same,AUC(0-inf),[1]; [9],1364.9 ng·h/mL
same,T 1/2,[1]; [9],27.8 h
same,C max,"[1]; non-Japanese subjects, TAK-063 100 mg (n = 6), arithmetic mean",72.7 ng/mL
same,T max,"[1]; non-Japanese subjects, TAK-063 100 mg (n = 6), median",3.5 h
same,CL/F,[1]; [10],84.0 L/h
same,Vz/F,[1]; [10],3213.2 L
same,AUC(0-inf),[1]; [11],2165.7 ng·h/mL
same,T 1/2,[1]; [11],20.0 h
same,C max,"[1]; non-Japanese subjects, TAK-063 300 mg (n = 6), arithmetic mean",102.1 ng/mL
same,T max,"[1]; non-Japanese subjects, TAK-063 300 mg (n = 6), median",3.5 h
same,CL/F,[1]; [12],159.0 L/h
same,Vz/F,[1]; [12],4731.5 L
same,AUC(0-inf),[1]; [13],6502.0 ng·h/mL
same,C max,[1]; [13],230.7 ng/mL
same,CL/F,[1]; [13],230.6 L/h
same,T 1/2,[1]; [13],17.0 h
same,Vz/F,[1]; [13],6380.3 L
same,T max,"[1]; non-Japanese subjects, TAK-063 1000 mg (n = 6), median",4.0 h
same,CLr (renal clearance),"[1]; urine, Japanese subjects, TAK-063 30 mg (n = 5), arithmetic mean",4.0 mL/h
same,CLr (renal clearance),"[1]; urine, Japanese subjects, TAK-063 100 mg (n = 5), arithmetic mean",7.9 mL/h
same,CLr (renal clearance),"[1]; urine, Japanese subjects, TAK-063 300 mg (n = 5), arithmetic mean",5.9 mL/h
same,CLr (renal clearance),"[1]; urine, Japanese subjects, TAK-063 1000 mg (n = 5), arithmetic mean",6.8 mL/h
same,Renal elimination,"[1]; urine, fasting",negligible
same,CLr (renal clearance),"[1]; urine, fasting, all subjects, TAK-063 30 mg (n = 11), arithmetic mean (% CV)",2.4 (123) mL/h
same,CLr (renal clearance),"[1]; urine, fasting, all subjects, TAK-063 100 mg (n = 11), arithmetic mean (% CV)",5.9 (78) mL/h
same,CLr (renal clearance),"[1]; urine, fasting, all subjects, TAK-063 300 mg (n = 11), arithmetic mean (% CV)",6.1 (63) mL/h
same,CLr (renal clearance),"[1]; urine, fasting, all subjects, TAK-063 1000 mg (n = 11), arithmetic mean (% CV)",6.8 (56) mL/h
same,CLr,"[1]; urine, non-Japanese subjects, TAK-063 30 mg (n = 6), arithmetic mean (% CV)",1.1 (179) mL/h
same,CLr,"[1]; urine, non-Japanese subjects, TAK-063 100 mg (n = 6), arithmetic mean (% CV)",4.2 (84) mL/h
same,CLr,"[1]; urine, non-Japanese subjects, TAK-063 300 mg (n = 6), arithmetic mean (% CV)",6.2 (63) mL/h
same,CLr,"[1]; urine, non-Japanese subjects, TAK-063 1000 mg (n = 6), arithmetic mean (% CV)",6.8 (61) mL/h
same,Median T max,[2]; fed (standard meal),6 h
same,"Oral bioavailability, fed relative to fasting",[2]; standard meal,approximately 2 fold

# Reference: article PMC5063900, “A phase 1 study of the safety, tolerability, pharmacokinetics, and pharmacodynamics of TAK-063, a selective PDE10A inhibitor” (Psychopharmacology, 2016)
